# According to US20170360795A1, “TREATMENT OF CANCERS USING PI3 KINASE ISOFORM MODULATORS” (INFINITY PHARMACEUTICALS, INC., priority 2013, published 2017):
# “Also recorded” adds a separate entry of the source.
# Assays:
# [1] = in vivo rat micronucleus assay
# pPRAS40 = pPRAS40 level in HH, MJ, HuT78 cells; format: cell-based; conditions: FIG. 33, as compared to GS-1101
# SU-DHL-6 = test: cellular growth inhibition assay (72 hour CTG), DLBCL; format: cell-based; conditions: SU-DHL-6 (GCB)
# migration of CLL cells = test: chemotaxis assay; format: cell-based; conditions: n=8
# Description: (FIGS. 35 and 36). […] In addition, this direct inhibitory effect on CLL cells in the lymph nodes could lead to rapid and prolonged responses in cancer patients.
# human P-glycoprotein = biological target: T1, human P-glycoprotein (Homo sapiens, UniProt P08183); test: Caco-2 cell monolayers: membrane permeability and P-glycoprotein interaction; format: in vitro ADME
# T1 construct: assessed in vitro using Caco-2 cell monolayers; endogenous in cells; host or cells: Caco-2
# T1 sequence (P08183 whole entry): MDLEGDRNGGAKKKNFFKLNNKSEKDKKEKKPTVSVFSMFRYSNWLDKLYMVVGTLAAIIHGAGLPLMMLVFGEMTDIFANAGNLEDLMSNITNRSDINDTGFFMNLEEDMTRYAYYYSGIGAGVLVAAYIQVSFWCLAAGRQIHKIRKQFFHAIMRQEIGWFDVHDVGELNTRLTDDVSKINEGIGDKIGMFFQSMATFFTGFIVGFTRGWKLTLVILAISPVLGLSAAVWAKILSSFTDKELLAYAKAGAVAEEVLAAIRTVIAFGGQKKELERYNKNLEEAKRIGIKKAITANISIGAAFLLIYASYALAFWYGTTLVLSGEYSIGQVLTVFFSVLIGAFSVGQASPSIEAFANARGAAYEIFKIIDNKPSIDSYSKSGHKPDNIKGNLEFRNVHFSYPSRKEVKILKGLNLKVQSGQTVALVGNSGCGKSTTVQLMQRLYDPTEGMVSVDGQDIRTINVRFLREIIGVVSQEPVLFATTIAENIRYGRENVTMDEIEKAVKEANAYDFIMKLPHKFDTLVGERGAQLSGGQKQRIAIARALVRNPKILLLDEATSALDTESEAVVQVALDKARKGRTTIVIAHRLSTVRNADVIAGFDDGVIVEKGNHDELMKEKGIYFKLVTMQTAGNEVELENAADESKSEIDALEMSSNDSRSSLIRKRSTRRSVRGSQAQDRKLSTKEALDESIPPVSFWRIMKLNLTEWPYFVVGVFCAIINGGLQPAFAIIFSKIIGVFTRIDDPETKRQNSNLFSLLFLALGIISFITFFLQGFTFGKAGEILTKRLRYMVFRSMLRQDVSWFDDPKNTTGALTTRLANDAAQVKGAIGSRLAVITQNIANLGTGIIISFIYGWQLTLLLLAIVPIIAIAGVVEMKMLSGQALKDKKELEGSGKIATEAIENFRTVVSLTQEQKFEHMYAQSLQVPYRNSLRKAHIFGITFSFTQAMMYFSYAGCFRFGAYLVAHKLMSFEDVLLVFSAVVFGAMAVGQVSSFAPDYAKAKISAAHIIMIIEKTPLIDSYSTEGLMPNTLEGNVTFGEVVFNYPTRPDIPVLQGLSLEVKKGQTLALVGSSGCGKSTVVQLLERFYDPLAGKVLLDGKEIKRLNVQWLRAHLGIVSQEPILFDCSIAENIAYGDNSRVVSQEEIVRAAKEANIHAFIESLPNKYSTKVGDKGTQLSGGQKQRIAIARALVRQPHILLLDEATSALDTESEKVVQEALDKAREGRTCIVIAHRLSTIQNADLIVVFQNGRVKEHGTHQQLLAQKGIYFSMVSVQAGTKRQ
# central nervous system = test: Neurofunctional study (FOB, motor activity); format: in vivo, Sprague-Dawley rat
# [2] = test system: TNF-α and IL-10 production; test: LPS-stimulated cytokine production in diluted whole blood; format: cell-based; conditions: diluted whole blood (1:1), 24 hours pre-treatment, 100 μg/mL LPS
# SU-DHL-4 = test: cellular growth inhibition assay (72 hour CTG), DLBCL; format: cell-based; conditions: SU-DHL-4 (GCB)
# [3] = test system: SU-DHL-4 GCB DLBCL cell line; test: cell viability CellTiter Glo, 72 hours, with ibrutinib; format: cell-based; conditions: SU-DHL-4, monotherapy
# hERG channel = hERG channel (Homo sapiens, UniProt Q12809); test: In vitro hERG assay
# hERG channel, sequence (Q12809 whole entry): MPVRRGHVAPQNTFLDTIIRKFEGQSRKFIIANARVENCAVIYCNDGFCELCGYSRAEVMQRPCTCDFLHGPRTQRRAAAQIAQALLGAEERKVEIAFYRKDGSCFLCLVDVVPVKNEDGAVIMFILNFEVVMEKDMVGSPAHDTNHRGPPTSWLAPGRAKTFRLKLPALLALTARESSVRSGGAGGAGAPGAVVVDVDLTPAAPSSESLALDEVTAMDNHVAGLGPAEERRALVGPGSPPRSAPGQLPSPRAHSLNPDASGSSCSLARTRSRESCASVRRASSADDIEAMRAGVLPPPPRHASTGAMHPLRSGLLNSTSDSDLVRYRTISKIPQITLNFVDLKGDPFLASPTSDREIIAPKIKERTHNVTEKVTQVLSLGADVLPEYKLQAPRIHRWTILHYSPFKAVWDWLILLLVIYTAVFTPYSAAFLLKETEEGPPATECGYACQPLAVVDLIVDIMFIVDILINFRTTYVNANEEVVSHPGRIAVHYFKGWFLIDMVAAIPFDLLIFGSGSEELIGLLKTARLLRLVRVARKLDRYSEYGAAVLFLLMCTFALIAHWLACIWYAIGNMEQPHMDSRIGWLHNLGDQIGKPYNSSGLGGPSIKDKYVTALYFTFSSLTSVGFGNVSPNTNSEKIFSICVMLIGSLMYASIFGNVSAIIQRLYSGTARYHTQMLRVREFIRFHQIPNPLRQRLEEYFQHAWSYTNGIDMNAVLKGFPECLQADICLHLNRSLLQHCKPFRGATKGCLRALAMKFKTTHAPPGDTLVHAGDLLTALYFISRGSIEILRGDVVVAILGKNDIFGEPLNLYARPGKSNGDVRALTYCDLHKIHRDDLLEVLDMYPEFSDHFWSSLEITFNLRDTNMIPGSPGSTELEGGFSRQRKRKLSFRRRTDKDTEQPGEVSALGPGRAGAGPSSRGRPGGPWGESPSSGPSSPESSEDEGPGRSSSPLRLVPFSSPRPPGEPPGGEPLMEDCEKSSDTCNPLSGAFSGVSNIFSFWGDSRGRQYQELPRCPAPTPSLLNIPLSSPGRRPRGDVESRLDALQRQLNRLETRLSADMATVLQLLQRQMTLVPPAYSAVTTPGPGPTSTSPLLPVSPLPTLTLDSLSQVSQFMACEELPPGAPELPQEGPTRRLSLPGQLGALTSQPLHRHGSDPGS
# LPN049 and LPN236 = test: MTT assay, PTEN deficient transgenic T-ALL model cell lines; format: cell-based, murine
structure (smiles),measurement,setting,value
C[C@H](Nc1ncnc2[nH]cnc12)c1cc2cccc(Cl)c2c(=O)n1-c1ccccc1 [Compound 292],direct adverse effect in micronucleus assay,[1],no direct adverse effect
same,level of pPRAS40,pPRAS40,decrease
same,sensitivity in cellular growth inhibition assay,SU-DHL-6,more sensitive; also recorded: nanomolar (nM) range
same,"reduction in migration of CLL cells, % control reduction, range",migration of CLL cells,2-42%
same,cell membrane permeability,human P-glycoprotein,moderate
same,inhibition of active transport of other P-gp substrates,human P-glycoprotein,has the potential to inhibit the active transport of other P-gp substrates
same,locomotor activity,central nervous system; 2 h after a 350 mg/kg dose,Significant decreases
same,effects on the central nervous system,central nervous system; dose levels ≦50 mg/kg,No effects
same,cytokine (TNF-α and IL-10) production,[2],inhibition
same,sensitivity in cellular growth inhibition assay,SU-DHL-4,more sensitive; also recorded: nanomolar (nM) range
same,viability of DLBCL cells,[3],dose dependently inhibited
same,Hill coefficient,hERG channel,1.3
same,sensitivity by MTT assay,LPN049 and LPN236,sensitive
